Source: patent US7524880B2, “Crystalline form of a substituted pyrrolidine compound” (Theravance, Inc., priority 2004, dated 2009)

Assays:
[1] = tested on: pilocarpine-evoked salivation; experiment: Inhalation guinea pig salivation assay; assay type: in vivo
Procedure: Guinea pigs (Charles River, Wilmington, Mass.) weighing 200-350 g were acclimated to the in-house guinea pig colony for at least 3 days following arrival. Test compound or vehicle were dosed via inhalation (IH) over a 10 minute time period in a pie shaped dosing chamber (R+S Molds, San Carlos, Calif.). Test solutions were dissolved in sterile water and delivered using a nebulizer filled with 5.0 mL of dosing solution. Guinea pigs were restrained in the inhalation chamber for 30 minutes. During this time, guinea pigs were restricted to an area of approximately 110 cm^2. This space was adequate for the animals to turn freely, reposition themselves, and allow for grooming. […] Upon completion of nebulization, guinea pigs were evaluated at 1.5, 6, 12, 24, 48, or 72 hrs after treatment.
Guinea pigs were anesthetized one hour before testing with an intramuscular (IM) injection of a mixture of ketamine 43.75 mg/kg, xylazine 3.5 mg/kg, and acepromazine 1.05 mg/kg at an 0.88 mL/kg volume. […] Saliva was collected for 10 minutes, at which point the gauze pad was weighed and the difference in weight recorded to determine the amount of accumulated saliva (in mg). The mean amount of saliva collected for animals receiving the vehicle and each dose of test compound was calculated. […] Results were calculated using result means (n=3 or greater). […]

[2] = tested on: ACh-induced bronchoconstriction; experiment: Duration of bronchoprotection in guinea pig model of acetylcholine-induced bronchoconstriction; assay type: in vivo; conditions: inhalation, 1.5 hours post-dose
Procedure: Groups of six male guinea pigs (Duncan-Hartley (HsdPoc:DH) Harlan, Madison, Wis.) weighing between 250 and 350 g were individually identified by cage cards. Throughout the study animals were allowed access to food and water ad libitum.
The test compound was administered via inhalation over 10 minutes in a whole-body exposure dosing chamber (R&S Molds, San Carlos, Calif.). The dosing chambers were arranged so that an aerosol was simultaneously delivered to 6 individual chambers from a central manifold. Guinea pigs were exposed to an aerosol of a test compound or vehicle (WFI). […] This was measured gravimetrically by comparing pre-and post-nebulization weights of the filled nebulizer.
The bronchoprotective effects of a test compound administered via inhalation were evaluated using whole body plethysmography at 1.5, 24, 48 and 72 hours post-dose.
Forty-five minutes prior to the start of the pulmonary evaluation, each guinea pig was anesthetized with an intramuscular injection of ketamine (43.75 mg/kg), xylazine (3.50 mg/kg) and acepromazine (1.05 mg/kg). […] The depth of anesthesia was monitored and adjusted if the animal responded to pinching of its paw or if the respiration rate was greater than 100 breaths/minute. […]
Starting this program initiated the experimental protocol and data collection. […] By integrating this signal over time, a measurement of flow was calculated for each breath. […]

## CNCCCCCCCCN1CC[C@@H](C(C(N)=O)(c2ccccc2)c2ccccc2)C1 [compound of formula I, 2-[(S)-1-(8-methylaminooctyl)pyrrolidin-3-yl]-2,2-diphenylacetamide]
[1]
  apparent lung selectivity index (ratio of anti-sialagogue ID50 to bronchoprotective ID50): greater than 5
[2]
  PD2(50) for ACh-induced bronchoconstriction: less than 200 μg/mL
